{"source": "patent US6649654B1", "about": "“Methods for identifying and using IKK inhibitors” (The Regents of the University of California, priority 1999, dated 2003)", "key": {"[1]": {"test_system": "NF-κB", "test": "NF-κB activation / DNA-binding activity by EMSA in stimulated HeLa cells", "format": "cell-based, human", "settings": "for effect on NF-κB activation: HeLa cells stimulated with TNFα (PGA1: IL-1 or TNFα); for pIC50: Homo sapiens, HeLa cells", "procedure": "Cells used in the experiments described herein were cultured in either RPMI 1640 (Jurkat cells) or DMEM (HeLa and COS cells), supplemented with 10% FBS and antibiotics. Cells were stimulated with either 25 ng/ml TPA, 20 ng/ml recombinant TNFα, or 10 ng/ml interleukin 1β (Sigma). PGA1, 15dPGJ2, T×B2, LTB4, AA and other PGs (Cayman) dissolved in ethanol were used as well, as known in the art (See e.g., Rossi et al., 94:746-750 [1997]). Controls received equal amounts of ethanol. Transfections were performed using Lipofectamine Plus (GIBCO) for HeLa and COS cells and DEAE-dextran (Sigma) for Jurkat cells. Xpress-tagged NIK, Xpress-tagged MEKK1, HA-tagged IKKα, and HA-tagged IKKβ were also used (See e.g., Zandi et al., Science 281:1360-1363 [1998]; and Delhase et al., Science 284:309-313 [1999]). COX2 and cPLA2 expression vectors were obtained from Dr. L. Feng (See also, Hirose et al., J. Am. Soc. Nephrol., 9:408-416 [1998]). PGD synthase was cloned from HT29 colon carcinoma cell line cDNA by PCR and subcloned into a pCDNA3 vector. Cells were lysed in buffer B (50 mM Tris-HCl, pH 7.5, 400 mM NaCl, 1 mM EDTA, 1 mM EGTA, 1% Triton, 0.5% NP-40, 10% glycerol, and supplemented with 20 mM β-glycerophosphate, 10 mM PNPP, […] 1 mM PMSF, 20 μg/ml aprotinin, 2.5 μg/ml leupeptin, 8.3 μg/ml bestatin, 1.7 μg/ml pepstatin, and 2 mM DTT).\nAliquots of total extracts (15 μg protein) in buffer B were incubated with a ^32P-labeled κB DNA, followed by analysis of DNA-binding activities by EMSA on 4% PAGE gels, as known in the art (See, Rossi et al., supra). Specificity of protein-DNA complexes was verified by supershift with polyclonal antibodies specific for p65 (Rel A)."}, "[2]": {"molecular_target": "IKK (Homo sapiens, UniProt O14920+O15111)", "sequence (O14920 whole entry)": "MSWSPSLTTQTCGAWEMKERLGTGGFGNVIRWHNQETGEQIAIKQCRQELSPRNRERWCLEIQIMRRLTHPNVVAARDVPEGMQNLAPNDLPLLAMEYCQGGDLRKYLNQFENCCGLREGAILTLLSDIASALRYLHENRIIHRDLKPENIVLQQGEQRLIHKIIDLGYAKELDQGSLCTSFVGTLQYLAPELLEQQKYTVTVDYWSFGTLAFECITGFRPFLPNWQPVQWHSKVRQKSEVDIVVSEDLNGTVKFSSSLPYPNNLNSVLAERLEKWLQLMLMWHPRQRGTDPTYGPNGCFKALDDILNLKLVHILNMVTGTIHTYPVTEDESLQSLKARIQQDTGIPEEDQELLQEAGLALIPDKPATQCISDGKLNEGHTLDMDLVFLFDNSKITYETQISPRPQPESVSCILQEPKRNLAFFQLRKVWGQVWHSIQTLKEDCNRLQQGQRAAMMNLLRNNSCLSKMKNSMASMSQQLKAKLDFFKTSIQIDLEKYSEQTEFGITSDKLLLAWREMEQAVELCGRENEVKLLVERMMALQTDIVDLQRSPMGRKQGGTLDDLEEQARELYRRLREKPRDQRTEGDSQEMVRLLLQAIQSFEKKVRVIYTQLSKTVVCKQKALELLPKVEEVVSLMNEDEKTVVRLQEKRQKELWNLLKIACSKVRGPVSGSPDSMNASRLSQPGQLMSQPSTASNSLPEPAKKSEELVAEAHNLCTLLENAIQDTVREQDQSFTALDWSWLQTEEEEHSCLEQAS", "sequence (O15111 whole entry)": "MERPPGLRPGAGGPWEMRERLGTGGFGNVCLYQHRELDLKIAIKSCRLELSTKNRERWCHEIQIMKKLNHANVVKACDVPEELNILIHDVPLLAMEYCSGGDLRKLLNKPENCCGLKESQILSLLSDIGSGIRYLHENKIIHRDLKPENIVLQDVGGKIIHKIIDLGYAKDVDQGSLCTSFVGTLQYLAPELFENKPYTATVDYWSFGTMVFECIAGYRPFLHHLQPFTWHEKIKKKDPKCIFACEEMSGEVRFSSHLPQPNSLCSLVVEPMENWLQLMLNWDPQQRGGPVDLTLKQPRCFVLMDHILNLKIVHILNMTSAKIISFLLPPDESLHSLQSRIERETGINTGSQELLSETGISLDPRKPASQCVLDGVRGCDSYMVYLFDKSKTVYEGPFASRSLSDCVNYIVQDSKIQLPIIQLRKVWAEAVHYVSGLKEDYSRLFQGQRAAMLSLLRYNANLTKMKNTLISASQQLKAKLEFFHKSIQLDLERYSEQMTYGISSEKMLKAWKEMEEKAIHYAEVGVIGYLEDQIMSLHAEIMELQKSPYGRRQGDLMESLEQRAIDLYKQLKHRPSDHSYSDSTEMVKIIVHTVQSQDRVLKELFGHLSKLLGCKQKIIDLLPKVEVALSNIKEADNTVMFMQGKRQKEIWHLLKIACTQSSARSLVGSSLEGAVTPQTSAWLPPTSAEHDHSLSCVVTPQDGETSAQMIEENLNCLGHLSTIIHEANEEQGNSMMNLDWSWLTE", "sequence (Q9Y6K9 whole entry partner)": "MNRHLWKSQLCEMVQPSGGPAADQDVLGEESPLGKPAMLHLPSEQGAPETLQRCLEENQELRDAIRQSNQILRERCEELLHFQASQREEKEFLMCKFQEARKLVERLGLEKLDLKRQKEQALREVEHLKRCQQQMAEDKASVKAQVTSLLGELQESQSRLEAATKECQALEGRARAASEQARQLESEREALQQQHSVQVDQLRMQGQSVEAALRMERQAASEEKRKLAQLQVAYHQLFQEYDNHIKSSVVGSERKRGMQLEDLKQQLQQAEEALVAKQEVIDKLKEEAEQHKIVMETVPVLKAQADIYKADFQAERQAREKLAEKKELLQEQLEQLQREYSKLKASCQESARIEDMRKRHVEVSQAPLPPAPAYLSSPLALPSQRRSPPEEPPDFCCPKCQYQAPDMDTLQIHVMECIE", "test": "In vitro kinase assay of IKK immunoprecipitated from TNFα-stimulated HeLa cells", "format": "biochemical", "parameters": "Endogenous IKK was immunoprecipitated from TNFα-stimulated HeLa cells; endogenous in cells; host or cells: HeLa", "settings": "for pIC50: IKK immunoprecipitated from TNFα-stimulated HeLa cells", "procedure": "Cell lysates were incubated with anti-IKKα (Pharmingen), anti-HA (12CA5; Pharmingen), anti-JNK1 (333.8; Pharmingen), or anti-p38 (New England Biolabs) for 2 hours. Then, 15 μl protein A-Sepharose (Sigma) were added and the mixture was allowed to incubate for 1 hour. After extensive washing, kinase assays were performed as known in the art (See e.g., DiDonato et al., Nature 388:548-554 [1997]). Endogenous IKK, HA-tagged IKKα, endogenous JNK1, and p38 activities were determined with GST-1κBα(1-54), GST-c-Jun(1-79), and GST-ATF2 as substrates.\nEndogenous IKK was immunoprecipitated from TNFα-stimulated HeLa cells and the kinase activity determined in the presence of different concentrations of PGA1 (the results of which are shown in FIG. 2B) or 15dPGJ2 (the results of which are shown in FIG. 2C).\nIn this Example, experiments to determined the effects of arachidonic acid and its metabolites on IKK activity in vivo and in vitro are described. HeLa cells were treated with 50 μM AA, PGA1, PGB2, PGD2, PGE1, PGE2, PGF1α, or thromboxane B2 (T×B2), 1 μM LTB4, or 5 μM 15dPGJ2, for 2 hours in RPMI containing 10% FCS, and stimulated with TNFα for 10 minutes. Cell lysates were then assayed for endogenous IKK activity and recovery. In this FIGURE, “control” indicates unstimulated cells, and “-” indicates treatment with diluent alone. In addition, IKK was immunoprecipitated from TNFα-stimulated HeLA cells and incubated in vitro with 100 μM AA, PGA1, PGB2, PGD2, PGE1, PGE2, PGF1α, or T×B2, 2 μM LTB4 or 10 μM 15dPGJ2, followed by kinase assay and immunoblot analysis. In this FIGURE, “control” indicates to unstimulated cells, and “-”indicates 1% ethanol.\nMany protein kinase inhibitors compete with binding of ATP, but preincubation in the presence of increasing concentrations of ATP had no effect on inhibition of IKKβ by 15dPGJ2, as indicated in FIG. 6A. […] The pellets were rinsed and kinase activity was measured."}}, "note": "pIC50: −log10 of the molar value. “Also recorded” adds a separate entry of the source. Where two headings read alike, the source gives them in different places.", "data": [{"compound": "CCCCC/C=C/C=C1/C(=O)C=C[C@@H]1C/C=C\\CCCC(=O)O", "note": "[15dPGJ2, 15-deoxy-Δ^12-14-PGJ2]", "values": [{"measurement": "effect on NF-κB activation", "setting": "[1]", "value": "inhibited"}, {"measurement": "pIC50", "setting": "[1]; TNFα, read-out: IC50 for inhibition of NF-κB DNA binding activity", "value": 5.65}, {"measurement": "pIC50", "setting": "[1]; TNFα, read-out: IC50 for inhibition of NF-κB DNA-binding activity", "value": 5.65}, {"measurement": "effect of pre-incubation with increasing ATP on inhibition (ATP competition)", "setting": "[2]; 15dPGJ2 0-30 μM with or without ATP, 4° C., 30 minutes", "value": "had no effect; also recorded: not a competitive inhibitor of ATP binding"}, {"measurement": "pIC50", "setting": "[2]", "value": 5.15}]}, {"compound": "CCCCC[C@H](O)/C=C/[C@H]1C=CC(=O)C1CCCCCCC(=O)O", "note": "(stereo partly drawn) [PGA1, prostaglandin A1]", "values": [{"measurement": "effect on NF-κB activation", "setting": "[1]", "value": "prevented"}, {"measurement": "pIC50", "setting": "[1]; read-out: IC50 towards NF-κB", "value": 4.19}, {"measurement": "pIC50", "setting": "[1]; read-out: half-maximal inhibition towards NF-κB", "value": 4.19}, {"measurement": "pIC50", "setting": "[2]", "value": 4.10}]}]}
